14 compounds from patent US7387997B2 (University of Utah, priority 2004, dated 2008) can be followed below.

The target in test [1] is T1, Rat α3β2 nAChR (Rattus norvegicus, UniProt P04757+P12390).
T1 construct: expressed in transfected cells; host or cells: Xenopus laevis oocytes, cRNA injected
Description: cell-based. It is filed as cell-based.

For test [2], the target named is Mouse CNS α-MII Site (putative α6β2* nAChRs). It is filed as binding.
Test [3] deals with T2, Rat α6/α3β2β3 nAChR (Rattus norvegicus, UniProt P04757+P12390+P43143).
T2 construct: amino acids 1 to 237 of the rat α6 subunit protein; amino acids 233 to 499 of the rat α3 subunit protein; expressed in transfected cells; host or cells: Xenopus laevis oocytes, cRNA injected (pT7TS/rα6α3 for the chimera)
Description: cell-based. Type of test: cell-based.

Test [4] has as its target T3, α4β2 nAChR (Rattus norvegicus, UniProt P09483+P12390).
T3 construct: expressed in transfected cells; host or cells: Xenopus laevis oocytes, cRNA injected
Type of test: cell-based.

pIC50, pKi: −log10 of the molar value. Where a SMILES comes first, the peptide text is derived from it. Bridges are numbered along the chain shown (N, C = ends).

Usually pKi stands for the Ki on a negative log10 scale, so that one unit is a factor of ten. A low value points to a high Ki. The term pIC50 denotes the negative decadic logarithm of the IC50, by convention in mol/L. A low value points to a high IC50.

T1 sequence (P04757 26-499 limits assumed): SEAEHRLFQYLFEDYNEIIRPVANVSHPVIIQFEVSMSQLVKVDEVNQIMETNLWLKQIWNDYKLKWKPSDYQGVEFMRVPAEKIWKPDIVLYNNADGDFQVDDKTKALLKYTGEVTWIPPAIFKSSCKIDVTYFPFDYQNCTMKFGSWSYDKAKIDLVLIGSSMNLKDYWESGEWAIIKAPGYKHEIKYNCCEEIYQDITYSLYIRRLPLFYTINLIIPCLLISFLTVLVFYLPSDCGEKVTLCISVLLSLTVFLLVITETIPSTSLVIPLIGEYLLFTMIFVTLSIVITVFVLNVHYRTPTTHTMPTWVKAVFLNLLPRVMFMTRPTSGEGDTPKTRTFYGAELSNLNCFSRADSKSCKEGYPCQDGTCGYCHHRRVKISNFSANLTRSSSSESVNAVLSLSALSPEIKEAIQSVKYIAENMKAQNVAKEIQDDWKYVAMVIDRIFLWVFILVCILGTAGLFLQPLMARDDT
T1 sequence (P12390 25-500 limits assumed): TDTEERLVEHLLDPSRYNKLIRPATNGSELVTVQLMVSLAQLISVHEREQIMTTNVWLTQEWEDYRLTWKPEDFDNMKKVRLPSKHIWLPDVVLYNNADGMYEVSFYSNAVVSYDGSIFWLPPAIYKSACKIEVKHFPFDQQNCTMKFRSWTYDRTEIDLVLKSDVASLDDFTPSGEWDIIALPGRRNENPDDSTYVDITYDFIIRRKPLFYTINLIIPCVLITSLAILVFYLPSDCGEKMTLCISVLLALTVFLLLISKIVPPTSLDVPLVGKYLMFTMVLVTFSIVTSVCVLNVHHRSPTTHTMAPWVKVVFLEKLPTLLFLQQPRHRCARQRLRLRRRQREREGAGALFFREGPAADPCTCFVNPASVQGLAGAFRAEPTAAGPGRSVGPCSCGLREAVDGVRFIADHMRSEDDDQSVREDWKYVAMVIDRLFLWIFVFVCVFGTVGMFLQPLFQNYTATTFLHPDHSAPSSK
T2 sequence (P43143 31-237 limits assumed): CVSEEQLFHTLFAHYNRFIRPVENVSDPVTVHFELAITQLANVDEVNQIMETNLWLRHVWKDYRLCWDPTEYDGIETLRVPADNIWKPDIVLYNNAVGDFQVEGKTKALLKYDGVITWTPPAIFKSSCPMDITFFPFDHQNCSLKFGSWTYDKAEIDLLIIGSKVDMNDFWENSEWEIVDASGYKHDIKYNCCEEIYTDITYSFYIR
T2 sequence (P04757 233-499 limits assumed): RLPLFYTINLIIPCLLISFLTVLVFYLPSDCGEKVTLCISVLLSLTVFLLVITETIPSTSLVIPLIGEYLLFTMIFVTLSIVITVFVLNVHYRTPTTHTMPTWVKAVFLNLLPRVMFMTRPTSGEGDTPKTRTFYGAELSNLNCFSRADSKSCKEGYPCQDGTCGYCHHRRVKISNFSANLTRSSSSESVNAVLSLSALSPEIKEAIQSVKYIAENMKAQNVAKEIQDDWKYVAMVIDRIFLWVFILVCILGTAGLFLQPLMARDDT
T2 sequence (P12390 25-500 limits assumed): as the sequence (P12390 25-500 limits assumed) above
T3 sequence (P09483 31-630 limits assumed): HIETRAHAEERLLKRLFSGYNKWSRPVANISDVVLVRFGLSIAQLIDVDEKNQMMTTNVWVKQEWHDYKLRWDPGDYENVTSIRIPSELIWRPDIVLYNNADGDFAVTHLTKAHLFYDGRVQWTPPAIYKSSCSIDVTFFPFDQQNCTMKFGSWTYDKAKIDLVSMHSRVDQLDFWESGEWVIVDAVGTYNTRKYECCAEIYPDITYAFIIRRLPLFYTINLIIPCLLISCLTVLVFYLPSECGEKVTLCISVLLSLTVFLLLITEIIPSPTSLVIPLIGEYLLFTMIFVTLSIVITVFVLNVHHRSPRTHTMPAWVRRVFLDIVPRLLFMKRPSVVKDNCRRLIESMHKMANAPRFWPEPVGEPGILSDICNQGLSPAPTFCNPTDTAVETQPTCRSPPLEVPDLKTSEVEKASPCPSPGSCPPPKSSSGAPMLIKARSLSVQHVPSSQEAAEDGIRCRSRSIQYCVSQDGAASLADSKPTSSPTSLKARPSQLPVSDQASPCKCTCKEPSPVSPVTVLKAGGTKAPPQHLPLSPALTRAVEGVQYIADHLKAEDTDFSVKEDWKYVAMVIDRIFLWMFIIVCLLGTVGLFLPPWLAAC
T3 sequence (P12390 25-500 limits assumed): as the sequence (P12390 25-500 limits assumed) above

In the case of `CC(C)C[C@@H]1NC(=O)[C@H](CC(N)=O)NC(=O)[C@H](CO)NC(=O)[C@H](Cc2c[nH]cn2)NC(=O)[C@H](CCC(=O)O)NC(=O)[C@H](CC(C)C)NC(=O)[C@H](Cc2c[nH]cn2)NC(=O)[C@@H]2CSSC[C@H](NC(=O)CN)C(=O)N[C@@H](CSSC[C@@H](C(N)=O)NC1=O)C(=O)N[C@@H](CO)C(=O)N[C@@H](CC(N)=O)C(=O)N1CCC[C@H]1C(=O)N[C@@H](C(C)C)C(=O)N2` [MII, reference compound], the “Hill slope, α3β2” value in test [1] turned out to be 0.75±0.13. The compound also had a pKi in test [2] of 9.66.
For `CC(C)C[C@@H]1NC(=O)[C@H](Cc2c[nH]cn2)NC(=O)[C@@H]2CSSC[C@H](NC(=O)CN)C(=O)N[C@@H](CSSC[C@@H](C(N)=O)NC(=O)[C@H](C)NC(=O)[C@H](CC(N)=O)NC(=O)[C@H](CO)NC(=O)[C@H](Cc3c[nH]cn3)NC(=O)[C@H](C)NC1=O)C(=O)N[C@@H](CO)C(=O)N[C@@H](CC(N)=O)C(=O)N1CCC[C@H]1C(=O)N[C@@H](C(C)C)C(=O)N2` [MII[E11A; L15A]] (H-GCCSNPVCHLAHSNAC-NH2; disulfide 2-8, 3-16), in test [1], the pIC50 was 7.30 and the “Ratio IC50 α3β2/IC50 α6/α3β2β3” value amounted to 121. For the same compound, the pIC50 in test [3] is 9.38.
Consider `CC(C)C[C@@H]1NC(=O)[C@H](C)NC(=O)[C@@H]2CSSC[C@H](NC(=O)CN)C(=O)N[C@@H](CSSC[C@@H](C(N)=O)NC(=O)[C@H](CC(C)C)NC(=O)[C@H](CC(N)=O)NC(=O)[C@H](CO)NC(=O)[C@H](Cc3c[nH]cn3)NC(=O)[C@H](CCC(=O)O)NC1=O)C(=O)N[C@@H](CO)C(=O)N[C@@H](CC(N)=O)C(=O)N1CCC[C@H]1C(=O)N[C@@H](C(C)C)C(=O)N2` [MII[H9A]] (H-GCCSNPVCALEHSNLC-NH2; disulfide 2-8, 3-16), for which the “ACh response, percentage of control, Rα4β2” value in test [4] is given as 105.8±2.4 % of control. Moreover, in test [1], the “Hill slope, α3β2” value is on record as 0.83±0.08; the pIC50 was 7.23; the “Ratio IC50 α3β2/IC50 α6/α3β2β3” value turned out to be 74.7. For the same compound, in test [3], the “Hill slope, α6/α3β2β3” value is on record as 0.73±0.08 and the negative-log IC50 (pIC50) is 9.10. The compound further gave a pKi in test [2] of 8.96.
Regarding `CC(C)C[C@@H]1NC(=O)[C@H](CC(N)=O)NC(=O)[C@H](CO)NC(=O)[C@H](C)NC(=O)[C@H](CCC(=O)O)NC(=O)[C@H](CC(C)C)NC(=O)[C@H](Cc2c[nH]cn2)NC(=O)[C@@H]2CSSC[C@H](NC(=O)CN)C(=O)N[C@@H](CSSC[C@@H](C(N)=O)NC1=O)C(=O)N[C@@H](CO)C(=O)N[C@@H](CC(N)=O)C(=O)N1CCC[C@H]1C(=O)N[C@@H](C(C)C)C(=O)N2` [MII[H12A]] (H-GCCSNPVCHLEASNLC-NH2; disulfide 2-8, 3-16), in test [1], the pIC50 was 5.33 and the “Ratio IC50 α3β2/IC50 α6/α3β2β3” value worked out at 7.72. Besides, the pIC50 in test [3] is 6.22.
Take `CC(C)[C@@H]1NC(=O)[C@@H]2CCCN2C(=O)[C@H](CC(N)=O)NC(=O)[C@H](CO)NC(=O)[C@@H]2CSSC[C@@H](C(N)=O)NC(=O)[C@H](C)NC(=O)[C@H](CC(N)=O)NC(=O)[C@H](CO)NC(=O)[C@H](Cc3c[nH]cn3)NC(=O)[C@H](CCC(=O)O)NC(=O)[C@H](C)NC(=O)[C@H](Cc3c[nH]cn3)NC(=O)[C@H](CSSC[C@H](NC(=O)CN)C(=O)N2)NC1=O` [MII[L10A; L15A]] (H-GCCSNPVCHAEHSNAC-NH2; disulfide 2-8, 3-16): in test [1], the pIC50 is 7.76 and the “Ratio IC50 α3β2/IC50 α6/α3β2β3” value turned out to be 9.56. In addition, in test [3], the pIC50 is 8.74.
On to `CC(C)C[C@@H]1NC(=O)[C@H](CC(N)=O)NC(=O)[C@H](CO)NC(=O)[C@H](Cc2c[nH]cn2)NC(=O)[C@H](CCC(=O)O)NC(=O)[C@H](C)NC(=O)[C@H](Cc2c[nH]cn2)NC(=O)[C@@H]2CSSC[C@H](NC(=O)CN)C(=O)N[C@@H](CSSC[C@@H](C(N)=O)NC1=O)C(=O)N[C@@H](CO)C(=O)N[C@@H](CC(N)=O)C(=O)N1CCC[C@H]1C(=O)N[C@@H](C(C)C)C(=O)N2` [MII[L10A]] (H-GCCSNPVCHAEHSNLC-NH2; disulfide 2-8, 3-16), for which, in test [1], the pIC50 is 8.83 and the “Ratio IC50 α3β2/IC50 α6/α3β2β3” value came out at 3.05. Besides, the pIC50 in test [3] was 9.32.
In the case of `CC(C)C[C@@H]1NC(=O)[C@H](Cc2c[nH]cn2)NC(=O)[C@@H]2CSSC[C@H](NC(=O)CN)C(=O)N[C@@H](CSSC[C@@H](C(N)=O)NC(=O)[C@H](C)NC(=O)[C@H](CC(N)=O)NC(=O)[C@H](CO)NC(=O)[C@H](Cc3c[nH]cn3)NC(=O)[C@H](CCC(=O)O)NC1=O)C(=O)N[C@@H](CO)C(=O)N[C@@H](CC(N)=O)C(=O)N1CCC[C@H]1C(=O)N[C@@H](C(C)C)C(=O)N2` [MII[L15A]] (H-GCCSNPVCHLEHSNAC-NH2; disulfide 2-8, 3-16), the “ACh response, percentage of control, Rα4β2” value in test [4] is reported as 102.3±5.3 % of control. In addition, in test [1], the “Hill slope, α3β2” value is reported as 0.58±0.08; the pIC50 was 7.47; the “Ratio IC50 α3β2/IC50 α6/α3β2β3” value stood at 37.2. For the same compound, in test [3], the “Hill slope, α6/α3β2β3” value is given as 0.75±0.08 and the pIC50 is 9.04. The compound further showed a pKi in test [2] of 9.52.
For `CC(C)C[C@@H]1NC(=O)[C@H](CC(N)=O)NC(=O)[C@H](CO)NC(=O)[C@H](Cc2c[nH]cn2)NC(=O)[C@H](CCC(=O)O)NC(=O)[C@H](CC(C)C)NC(=O)[C@H](Cc2c[nH]cn2)NC(=O)[C@@H]2CSSC[C@H](NC(=O)CN)C(=O)N[C@@H](CSSC[C@@H](C(N)=O)NC1=O)C(=O)N[C@@H](CO)C(=O)N[C@@H](C)C(=O)N1CCC[C@H]1C(=O)N[C@@H](C(C)C)C(=O)N2` [MII[N5A]] (H-GCCSAPVCHLEHSNLC-NH2; disulfide 2-8, 3-16), in test [1], the pIC50 is less than 5.00 and the “Ratio IC50 α3β2/IC50 α6/α3β2β3” value is greater than 12.6. Further, the pIC50 in test [3] was 6.10.
The corresponding values for `CC(C)C[C@@H]1NC(=O)[C@H](C)NC(=O)[C@H](CO)NC(=O)[C@H](Cc2c[nH]cn2)NC(=O)[C@H](CCC(=O)O)NC(=O)[C@H](CC(C)C)NC(=O)[C@H](Cc2c[nH]cn2)NC(=O)[C@@H]2CSSC[C@H](NC(=O)CN)C(=O)N[C@@H](CSSC[C@@H](C(N)=O)NC1=O)C(=O)N[C@@H](CO)C(=O)N[C@@H](CC(N)=O)C(=O)N1CCC[C@H]1C(=O)N[C@@H](C(C)C)C(=O)N2` [MII[N14A]] (H-GCCSNPVCHLEHSALC-NH2; disulfide 2-8, 3-16) are 7.59, 24.2 and 8.97.
As to `CC(C)C[C@@H]1NC(=O)[C@H](CC(N)=O)NC(=O)[C@H](CO)NC(=O)[C@H](Cc2c[nH]cn2)NC(=O)[C@H](CCC(=O)O)NC(=O)[C@H](CC(C)C)NC(=O)[C@H](Cc2c[nH]cn2)NC(=O)[C@@H]2CSSC[C@H](NC(=O)CN)C(=O)N[C@@H](CSSC[C@@H](C(N)=O)NC1=O)C(=O)N[C@@H](CO)C(=O)N[C@@H](CC(N)=O)C(=O)N[C@@H](C)C(=O)N[C@@H](C(C)C)C(=O)N2` [MII[P6A]] (H-GCCSNAVCHLEHSNLC-NH2; disulfide 2-8, 3-16), the pIC50 in test [1] was 5.35; in test [3], 6.60. Further, the “Ratio IC50 α3β2/IC50 α6/α3β2β3” value in test [1] is listed as 17.5.
With `CC(C)C[C@@H]1NC(=O)[C@H](C)NC(=O)[C@@H]2CSSC[C@H](NC(=O)CN)C(=O)N[C@@H](CSSC[C@@H](C(N)=O)NC(=O)[C@H](CC(C)C)NC(=O)[C@H](CC(N)=O)NC(=O)[C@H](CO)NC(=O)[C@H](Cc3c[nH]cn3)NC(=O)[C@H](CCC(=O)O)NC1=O)C(=O)N[C@@H](C)C(=O)N[C@@H](CC(N)=O)C(=O)N1CCC[C@H]1C(=O)N[C@@H](C(C)C)C(=O)N2` [MII[S4A; H9A]] (H-GCCANPVCALEHSNLC-NH2; disulfide 2-8, 3-16), in test [1], the pIC50 was 6.68 and the “Ratio IC50 α3β2/IC50 α6/α3β2β3” value was determined as 105. Further, the pIC50 in test [3] was 8.71.
Turning to `CC(C)C[C@@H]1NC(=O)[C@H](CC(N)=O)NC(=O)[C@H](CO)NC(=O)[C@H](Cc2c[nH]cn2)NC(=O)[C@H](CCC(=O)O)NC(=O)[C@H](CC(C)C)NC(=O)[C@H](Cc2c[nH]cn2)NC(=O)[C@@H]2CSSC[C@H](NC(=O)CN)C(=O)N[C@@H](CSSC[C@@H](C(N)=O)NC1=O)C(=O)N[C@@H](C)C(=O)N[C@@H](CC(N)=O)C(=O)N1CCC[C@H]1C(=O)N[C@@H](C(C)C)C(=O)N2` [MII[S4A]] (H-GCCANPVCHLEHSNLC-NH2; disulfide 2-8, 3-16), the negative-log IC50 (pIC50) in test [1] was 7.80; in test [3], 9.13. Besides, the “Ratio IC50 α3β2/IC50 α6/α3β2β3” value in test [1] was 21.56.
Turning to `CC(C)C[C@@H]1NC(=O)[C@H](CC(N)=O)NC(=O)[C@H](C)NC(=O)[C@H](Cc2c[nH]cn2)NC(=O)[C@H](CCC(=O)O)NC(=O)[C@H](CC(C)C)NC(=O)[C@H](Cc2c[nH]cn2)NC(=O)[C@@H]2CSSC[C@H](NC(=O)CN)C(=O)N[C@@H](CSSC[C@@H](C(N)=O)NC1=O)C(=O)N[C@@H](CO)C(=O)N[C@@H](CC(N)=O)C(=O)N1CCC[C@H]1C(=O)N[C@@H](C(C)C)C(=O)N2` [MII[S13A]] (H-GCCSNPVCHLEHANLC-NH2; disulfide 2-8, 3-16), in test [1], the pIC50 was 8.60 and the “Ratio IC50 α3β2/IC50 α6/α3β2β3” value is reported as 3.85. Besides, the pIC50 in test [3] is 9.18.
The like results for `CC(C)C[C@@H]1NC(=O)[C@H](CC(N)=O)NC(=O)[C@H](CO)NC(=O)[C@H](Cc2c[nH]cn2)NC(=O)[C@H](CCC(=O)O)NC(=O)[C@H](CC(C)C)NC(=O)[C@H](Cc2c[nH]cn2)NC(=O)[C@@H]2CSSC[C@H](NC(=O)CN)C(=O)N[C@@H](CSSC[C@@H](C(N)=O)NC1=O)C(=O)N[C@@H](CO)C(=O)N[C@@H](CC(N)=O)C(=O)N1CCC[C@H]1C(=O)N[C@@H](C)C(=O)N2` [MII[V7A]] (H-GCCSNPACHLEHSNLC-NH2; disulfide 2-8, 3-16) were, in that order, 8.35, 0.421 and 7.97.
